Where two headings read alike, the source gives them in different places.
Assays:
ChikV = test: IC50 in established virological assays (Table 1), ChikV; type: cell-based; details: Chikungunya virus
[1] = Pharmacokinetic study in Balb/c mice, peroral administration; type: in vivo; details: for Plasma concentration, Group A-D: single animals
Method: Study design, animal selection, handling and treatment were all in accordance with the study protocols and institutional animal care and use guidelines. Male Balb/c mice (9-10 weeks old, body weight 22.3 to 38.1 g and average body weight across all groups 31.4 g, SD=3.20 g) were used in this study. The animals were randomly assigned to the treatment groups before the pharmacokinetic study; all animals were fasted for 4 h before dosing. Six time points for PO (15, 30, 60, 120, 240 and 360 min) and IV (5, 15, 30, 60, 120 and 240 min) routes were used in this pharmacokinetic study. Each of the PO and IV time point treatment groups included 4 animals. There was also control group of 2 animals. Dosing was done according to the treatment schedules outlined in Table 3. Mice were injected IV with 2,2,2-tribromoethanol at the dose of 150 mg/kg prior to taking blood. Blood collection was performed from the orbital sinus in microtainers containing K2EDTA. Animals were sacrificed by cervical dislocation after blood samples collection. All samples were immediately prepared, flash-frozen and stored at −70° C. until subsequent bioanalysis.
Samples Processing Plasma samples ([…]) were mixed with […] of IS solution. After mixing by pipetting and centrifuging for 4 min at 6,000 rpm, […] of each supernatant was injected into LC-MS/MS system. Solution of compound IS-02-03 (200 ng/ml in acetonitrile-methanol mixture, 1:1, v/v) was used as internal standard (IS) for quantification of C10 in plasma samples. Samples Analysis The concentrations of C10 were determined using high performance liquid chromatography/tandem mass spectrometry (HPLC-MS/MS). Shimadzu H PLC system comprised of 2 isocratic pumps LC-10Advp, an autosampler SIL-HTc, a sub-controller FCV-14AH and a degasser DGU-14A. Mass spectrometric analysis was performed using an API 3000 (triple-quadrupole) instrument from AB Sciex (Canada) with an electro-spray (ESI) interface. The data acquisition and system control was performed using Analyst 1.5.2 software from AB Sciex. HPLC-MS/MS Conditions
The pharmacokinetic data analysis was performed using non-compartmental, bolus injection or extravascular input analysis models in WinNonlin 5.2 (PharSight). Data below LLOQ were presented as missing to improve validity of T1/2 calculations. No outlier data points were removed from calculations. The bioavailability for the peroral route was calculated as: […]

MeV = test: IC50 in established virological assays (Table 1), MeV; type: cell-based, Measles morbillivirus
Method: (§1) In summary, a set of C10 derivatives (FIG. 12) was designed, synthesized and tested against HCV (which is considered as an established system to monitor drug effects against Flaviviridae) as well as DENV for comprehensive structure-activity relationship (SAR) analysis and target validation. IC50 and CC50 values for compound C10 were determined in established virological assays (Table 1). […] Further, said experiments underline the specificity of compound C10 for flaviviruses.

HCV [2] = test: Antiviral effect on HCV (virus release), Jc1-Luc-IRES in Huh7.5 cells
DENV, ZIKV and KUNV = test: Inhibition of flavivirus infection, summary bounds over DENV, ZIKV and KUNV; type: cell-based
Method: Vero cells were seeded into 24-well plates at a density of 2×10^5 cells/well and grown overnight in culture medium at 37° C. with 5% CO2 prior to infection with RSV, KUNV, ZIKV as indicated. BHK-21 cells were used for DENV1-4. The virus inoculum was removed and replaced with semisolid overlays of 0.8% aquacide II (Calbiochem) in DMEM+2% FBS, and the mixture was incubated at 37° C. with 5% CO2. After 3-5 days, the cells were fixed with neutral buffered formalin (Sigma) for 3 h at room temperature, rinsed with tap water, and stained with 1% crystal violet for 10 min. The stain was removed by rinsing the cells with tap water, and the viral plaques were counted visually. Dose-response curves were plotted from the plaque number versus the log of the concentration of the test compounds.
Viral RNA was extracted using Isolate II RNA extraction kit (Bioline), and the absolute number of RNA copies determined by Taqman One Step RT-qPCR (Applied Biosystems) by extrapolation from a standard curve generated from in vitro—transcribed virus RNA.
It was decided to test the ability of C10 to inhibit the flaviviruses DENV1-4, KUNV and ZIKV, in addition to the paramyxovirus RSV, as a control.

KUNV (MRM61C strain) = test: Plaque assay of released virus, KUNV-infected Vero cells; type: cell-based, Kunjin virus; details: West Nile virus
Method: Vero cells were infected with KUNV at an MOI of 1 for 2 h (post infection), after which virus was removed, and fresh maintenance medium containing 2% FCS together with the indicated concentration of C10 added. For co-treat condition, Vero cells were infected with KUNV at an MOI of 1 in the presence of C10 for 2 h, followed by removal of the virus/C10 inoculums, and addition of fresh 2% fetal calf serum maintenance medium.
Vero and BHK-21 cells were maintained in DMEM media supplemented with 10% heat-inactivated FBS at 37° C. in a humidified incubator supplemented with 5% CO2; A549 cells were maintained in F-12K medium supplemented with 10% heat-inactivated Fetal Bovine Serum (FBS), 2 mM L-glutamine, 50 U/I penicillin, 0.05 mg/l streptomycin. DENV-1-4 strains, cell culture conditions and Gen-Bank accession numbers, as well as details of RSV strains and culture are known in the art. […] Viral titer was subsequently determined by plaque assay (see below).
Vero cells were seeded into 24-well plates at a density of 2×10^5 cells/well and grown overnight in culture medium at 37° C. with 5% CO2 prior to infection with RSV, KUNV, ZIKV as indicated. BHK-21 cells were used for DENV1-4. […] The stain was removed by rinsing the cells with tap water, and the viral plaques were counted visually. […]

HCV [3] = test: IC50 in established virological assays (Table 1), HCV; type: cell-based, Hepatitis C virus
Method: as §1

CCN1/C(=C\C=C\c2sc3cc(NC(C)=O)ccc3[n+]2CC)Sc2cc(NC(C)=O)ccc21.[I-] [C10, 6-acetamido-2-((1E,3E)-3-(6-acetamido-3-ethylbenzo[d]thiazol-2(3H)-ylidene)prop-1-en-1-yl)-3-ethylbenzo[d]thiazol-3-ium iodide]
IC50 (ChikV): 5600 nM | oral bioavailability ([1]; PO 10 mg/kg versus IV 5 mg/kg): zero | Plasma concentration, Mean ([1]; PO 10 mg/kg, 15 min): 0 ng(ml) | Plasma concentration, Group A-D ([1]; PO 10 mg/kg, 15 min, below LLOQ 10 ng/ml designated as zero): 0 ng(ml) | Plasma concentration, Mean ([1]; PO 10 mg/kg, 30 min): 0 ng(ml) | Plasma concentration, Group A-D ([1]; PO 10 mg/kg, 30 min, below LLOQ designated as zero): 0 ng(ml) | Plasma concentration, Mean ([1]; PO 10 mg/kg, 60 min): 0 ng(ml) | Plasma concentration, Group A-D ([1]; PO 10 mg/kg, 60 min, below LLOQ designated as zero): 0 ng(ml) | Plasma concentration, Mean ([1]; PO 10 mg/kg, 120 min): 0 ng(ml) | Plasma concentration, Group A-D ([1]; PO 10 mg/kg, 120 min, below LLOQ designated as zero): 0 ng(ml) | Plasma concentration, Mean ([1]; PO 10 mg/kg, 240 min): 0 ng(ml) | Plasma concentration, Group A-D ([1]; PO 10 mg/kg, 240 min, below LLOQ designated as zero): 0 ng(ml) | Plasma concentration, Mean ([1]; PO 10 mg/kg, 360 min): 0 ng(ml) | Plasma concentration, Group A-D ([1]; PO 10 mg/kg, 360 min, below LLOQ designated as zero): 0 ng(ml) | plasma levels following PO dosing ([1]; PO 10 mg/kg, LLOQ 10 ng/ml): below the lower limit of quantitation | activity against Measles morbillivirus (MeV) (MeV): inactive or has only minor activity | IC50 (MeV; Measles morbillivirus, MeV): > 10000 nM | antiviral effect on release of infectious HCV (HCV [2]; 24 h treatment): antiviral effects even at low concentrations | therapeutic index CC50/EC50 (HCV [2]; HCV virus release, Huh7.5): approximately 590 | EC50 (DENV, ZIKV and KUNV; c.t., DENV, ZIKV and KUNV infection, read-out: EC50): < 500 nM | EC50 (DENV, ZIKV and KUNV; c.t., read-out: EC50, infectious virus (plaque-forming units)): < 100 nM | EC50 (DENV, ZIKV and KUNV; c.t., read-out: EC50, virus genomes by RT-qPCR): < 500 nM | EC50 (DENV, ZIKV and KUNV; p.i., DENV, ZIKV and KUNV infection, read-out: EC50): < 2000 nM | EC50 (DENV, ZIKV and KUNV; p.i., read-out: EC50, virus genomes by RT-qPCR): < 1700 nM | EC50 (DENV, ZIKV and KUNV; read-out: EC50, infectious virus (plaque-forming units), p.i.): < 1500 nM | EC50 (DENV, ZIKV and KUNV; read-out: EC50s for co-addition, all serotypes of DENV, ZIKV and WNV, plaque assays or qPCR): 10 to 100 nM | EC50 (KUNV (MRM61C strain); read-out: EC50 from plaque assays, KUNV, c.t.): 50 nM | EC50 (KUNV (MRM61C strain); read-out: EC50 from plaque assays, KUNV, p.i.): 420 nM | IC50 (HCV [3]): 180 nM | IC50 (HCV [3]; Hepatitis C virus): ~200 nM
